According to PubChem BioAssay (NCI):
“And” between values parts separate entries of the source, which are not always exact repeats. Equal values may be shown once.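 Dose response: 5 concentrations. Exposure: 48 h. Format: 96-well plates. Endpoint: linear interpolation; highest concentration if not reached. GI50: concentration for 50% inhibition of growth. TGI: concentration producing complete growth inhibition.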

What was measured:
Test in all cases: NCI-60 cell line screen, 48 h
HCT-116 colon = test system: HCT-116 colon
SR leukemia = test system: SR leukemia
IGROV1 ovarian = test system: IGROV1 ovarian
LOX IMVI melanoma = test system: LOX IMVI melanoma
NCI-H226 lung = test system: NCI-H226 lung
OVCAR-4 ovarian = test system: OVCAR-4 ovarian
EKVX NSCLC = test system: EKVX NSCLC
CCRF-CEM leukemia = test system: CCRF-CEM leukemia
ACHN renal = test system: ACHN renal
MDA-MB-435 = test system: MDA-MB-435
NCI/ADR-RES ovarian = test system: NCI/ADR-RES ovarian
HCT-15 colon = test system: HCT-15 colon
PC-3 prostate = test system: PC-3 prostate
SK-OV-3 ovarian = test system: SK-OV-3 ovarian
SN12C renal = test system: SN12C renal
A549 NSCLC = test system: A549 NSCLC
SK-MEL-5 melanoma = test system: SK-MEL-5 melanoma
UO-31 renal = test system: UO-31 renal
HL-60(TB) leukemia = test system: HL-60(TB) leukemia
SNB-19 CNS = test system: SNB-19 CNS
NCI-H23 lung = test system: NCI-H23 lung
SF-539 CNS = test system: SF-539 CNS
HOP-62 NSCLC = test system: HOP-62 NSCLC
KM12 colon = test system: KM12 colon
HS 578T breast = test system: HS 578T breast
SK-MEL-28 melanoma = test system: SK-MEL-28 melanoma
TK-10 renal = test system: TK-10 renal
OVCAR-5 ovarian = test system: OVCAR-5 ovarian
MOLT-4 leukemia = test system: MOLT-4 leukemia
NCI-H460 lung = test system: NCI-H460 lung
SK-MEL-2 melanoma = test system: SK-MEL-2 melanoma
CAKI-1 renal = test system: CAKI-1 renal
MALME-3M melanoma = test system: MALME-3M melanoma
HCC-2998 colon = test system: HCC-2998 colon
SNB-75 CNS = test system: SNB-75 CNS
UACC-62 melanoma = test system: UACC-62 melanoma
SF-268 CNS = test system: SF-268 CNS
M14 melanoma = test system: M14 melanoma
HT29 colon = test system: HT29 colon
MCF7 breast = test system: MCF7 breast
NCI-H522 lung = test system: NCI-H522 lung
U251 CNS = test system: U251 CNS
HOP-92 NSCLC = test system: HOP-92 NSCLC
786-0 renal = test system: 786-0 renal
K-562 leukemia = test system: K-562 leukemia
UACC-257 melanoma = test system: UACC-257 melanoma
SW-620 colon = test system: SW-620 colon
COLO 205 colon = test system: COLO 205 colon
SF-295 CNS = test system: SF-295 CNS
BT-549 breast = test system: BT-549 breast
OVCAR-8 ovarian = test system: OVCAR-8 ovarian
OVCAR-3 ovarian = test system: OVCAR-3 ovarian
MDA-MB-231 breast = test system: MDA-MB-231 breast
T-47D breast = test system: T-47D breast
DU-145 prostate = test system: DU-145 prostate
A498 renal = test system: A498 renal
RPMI-8226 leukemia = test system: RPMI-8226 leukemia
MDA-N = test system: MDA-N
RXF 393 renal = test system: RXF 393 renal

In the case of `COc1ccc2c(c1OC)CN1CCc3cc4c(cc3C1C2)OCO4` (centres undefined), the TGI (HCT-116 colon) is reported as > 100 µM, the TGI (SR leukemia) is reported as > 100 µM and the TGI (IGROV1 ovarian) is reported as > 100 µM. The TGI (LOX IMVI melanoma) was > 100 µM, the TGI (NCI-H226 lung) was > 100 µM and the TGI (OVCAR-4 ovarian) was > 100 µM. The TGI (EKVX NSCLC) was > 100 µM, the GI50 (CCRF-CEM leukemia) was > 100 µM and the TGI (CCRF-CEM leukemia) was > 100 µM. The TGI (ACHN renal) was > 100 µM, the TGI (MDA-MB-435) was > 100 µM and the TGI (NCI/ADR-RES ovarian) was > 100 µM. For the same molecule, the TGI (HCT-15 colon) was > 100 µM, the TGI (PC-3 prostate) was > 100 µM and the TGI (SK-OV-3 ovarian) was > 100 µM. For the same molecule, the TGI (SN12C renal) was > 100 µM, the TGI (A549 NSCLC) was > 100 µM and the TGI (SK-MEL-5 melanoma) was > 100 µM. For the same molecule, the TGI (UO-31 renal) was > 100 µM, the TGI (HL-60(TB) leukemia) was > 100 µM and the TGI (SNB-19 CNS) was > 100 µM. For the same molecule, the TGI (NCI-H23 lung) was > 100 µM, the TGI (SF-539 CNS) was > 100 µM and the TGI (HOP-62 NSCLC) was > 100 µM. For the same molecule, the TGI (KM12 colon) was > 100 µM, the TGI (HS 578T breast) was > 100 µM and the TGI (SK-MEL-28 melanoma) was > 100 µM. The TGI (TK-10 renal) was > 100 µM, the TGI (OVCAR-5 ovarian) was > 100 µM and the TGI (MOLT-4 leukemia) was > 100 µM. The TGI (NCI-H460 lung) was > 100 µM, the TGI (SK-MEL-2 melanoma) was > 100 µM and the TGI (CAKI-1 renal) was > 100 µM. For the same molecule, the TGI (MALME-3M melanoma) was > 100 µM, the TGI (HCC-2998 colon) was > 100 µM and the TGI (SNB-75 CNS) was > 100 µM. For the same molecule, the TGI (UACC-62 melanoma) was > 100 µM, the TGI (SF-268 CNS) was > 100 µM and the TGI (M14 melanoma) was > 100 µM. For the same molecule, the GI50 (HT29 colon) was 30.8 µM and 76.1 µM, the TGI (HT29 colon) was > 100 µM and the TGI (MCF7 breast) was > 100 µM. For the same molecule, the TGI (NCI-H522 lung) was > 100 µM, the TGI (U251 CNS) was > 100 µM and the TGI (HOP-92 NSCLC) was > 100 µM. The TGI (786-0 renal) was > 100 µM, the TGI (K-562 leukemia) was > 100 µM and the TGI (UACC-257 melanoma) was > 100 µM. For the same molecule, the TGI (SW-620 colon) was > 100 µM, the TGI (COLO 205 colon) was > 100 µM and the TGI (SF-295 CNS) was > 100 µM. The TGI (BT-549 breast) was > 100 µM, the TGI (OVCAR-8 ovarian) was > 100 µM and the TGI (OVCAR-3 ovarian) was > 100 µM. The TGI (MDA-MB-231 breast) was > 100 µM, the TGI (T-47D breast) was > 100 µM and the TGI (DU-145 prostate) was > 100 µM. The TGI (A498 renal) was > 100 µM, the TGI (RPMI-8226 leukemia) was > 100 µM and the TGI (MDA-N) was > 100 µM.

In the case of `O=P(O)(OP(=O)(O)c1ccccc1)c1ccccc1` (tested in a mixture with another compound), the TGI (HCT-116 colon) is reported as > 100 µM, the TGI (SR leukemia) is reported as > 100 µM and the TGI (IGROV1 ovarian) is reported as > 100 µM. For the same molecule, the TGI (LOX IMVI melanoma) was > 100 µM, the TGI (NCI-H226 lung) was > 100 µM and the TGI (OVCAR-4 ovarian) was > 100 µM. The TGI (EKVX NSCLC) was > 100 µM, the TGI (CCRF-CEM leukemia) was > 100 µM and the TGI (ACHN renal) was > 100 µM. For the same molecule, the TGI (MDA-MB-435) was > 100 µM, the TGI (NCI/ADR-RES ovarian) was > 100 µM and the TGI (HCT-15 colon) was > 100 µM. The TGI (PC-3 prostate) was > 100 µM, the TGI (SK-OV-3 ovarian) was > 100 µM and the TGI (SN12C renal) was > 100 µM. The TGI (A549 NSCLC) was > 100 µM, the TGI (SK-MEL-5 melanoma) was > 100 µM and the TGI (UO-31 renal) was > 100 µM. For the same molecule, the TGI (HL-60(TB) leukemia) was > 100 µM, the TGI (SNB-19 CNS) was > 100 µM and the TGI (NCI-H23 lung) was > 100 µM. For the same molecule, the TGI (HOP-62 NSCLC) was > 100 µM, the TGI (KM12 colon) was > 100 µM and the TGI (HS 578T breast) was > 100 µM. The TGI (SK-MEL-28 melanoma) was > 100 µM, the TGI (TK-10 renal) was > 100 µM and the TGI (OVCAR-5 ovarian) was > 100 µM. The TGI (NCI-H460 lung) was > 100 µM, the TGI (SK-MEL-2 melanoma) was > 100 µM and the TGI (CAKI-1 renal) was > 100 µM. The TGI (MALME-3M melanoma) was > 100 µM, the TGI (HCC-2998 colon) was > 100 µM and the TGI (SNB-75 CNS) was > 100 µM. The TGI (UACC-62 melanoma) was > 100 µM, the TGI (SF-268 CNS) was > 100 µM and the TGI (M14 melanoma) was > 100 µM. For the same molecule, the TGI (HT29 colon) was > 100 µM, the TGI (MCF7 breast) was > 100 µM and the TGI (NCI-H522 lung) was > 100 µM. For the same molecule, the TGI (U251 CNS) was > 100 µM, the TGI (HOP-92 NSCLC) was > 100 µM and the TGI (786-0 renal) was > 100 µM. The TGI (K-562 leukemia) was > 100 µM, the TGI (UACC-257 melanoma) was > 100 µM and the TGI (SW-620 colon) was > 100 µM. For the same molecule, the TGI (COLO 205 colon) was > 100 µM, the TGI (SF-295 CNS) was > 100 µM and the TGI (BT-549 breast) was > 100 µM. The TGI (OVCAR-8 ovarian) was > 100 µM, the TGI (OVCAR-3 ovarian) was > 100 µM and the TGI (MDA-MB-231 breast) was > 100 µM. The TGI (T-47D breast) was > 100 µM, the TGI (RXF 393 renal) was > 100 µM and the TGI (DU-145 prostate) was > 100 µM. The TGI (A498 renal) was > 100 µM, the TGI (RPMI-8226 leukemia) was > 100 µM and the TGI (MDA-N) was > 100 µM.

For `O=C(O)/C=N/NC(=S)NC1CCCCC1`, the TGI (HCT-116 colon) was > 100 µM, the TGI (SR leukemia) was > 100 µM and the TGI (IGROV1 ovarian) was > 100 µM. For the same molecule, the TGI (LOX IMVI melanoma) was > 100 µM, the TGI (NCI-H226 lung) was > 100 µM and the TGI (OVCAR-4 ovarian) was > 100 µM. For the same molecule, the TGI (EKVX NSCLC) was > 100 µM, the TGI (CCRF-CEM leukemia) was > 100 µM and the TGI (ACHN renal) was > 100 µM. For the same molecule, the TGI (MDA-MB-435) was > 100 µM, the TGI (NCI/ADR-RES ovarian) was > 100 µM and the TGI (HCT-15 colon) was > 100 µM. For the same molecule, the TGI (PC-3 prostate) was > 100 µM, the TGI (SK-OV-3 ovarian) was > 100 µM and the TGI (SN12C renal) was > 100 µM. For the same molecule, the TGI (A549 NSCLC) was > 100 µM, the TGI (SK-MEL-5 melanoma) was > 100 µM and the TGI (UO-31 renal) was > 100 µM. The TGI (HL-60(TB) leukemia) was > 100 µM, the TGI (SNB-19 CNS) was > 100 µM and the TGI (NCI-H23 lung) was > 100 µM. For the same molecule, the TGI (SF-539 CNS) was > 100 µM, the TGI (HOP-62 NSCLC) was > 100 µM and the TGI (KM12 colon) was > 100 µM. For the same molecule, the TGI (HS 578T breast) was > 100 µM, the TGI (SK-MEL-28 melanoma) was > 100 µM and the TGI (TK-10 renal) was > 100 µM. For the same molecule, the TGI (OVCAR-5 ovarian) was > 100 µM, the TGI (MOLT-4 leukemia) was > 100 µM and the TGI (NCI-H460 lung) was > 100 µM. For the same molecule, the TGI (SK-MEL-2 melanoma) was > 100 µM, the TGI (CAKI-1 renal) was > 100 µM and the TGI (MALME-3M melanoma) was > 100 µM. For the same molecule, the TGI (HCC-2998 colon) was > 100 µM, the TGI (SNB-75 CNS) was > 100 µM and the TGI (UACC-62 melanoma) was > 100 µM. For the same molecule, the TGI (M14 melanoma) was > 100 µM, the TGI (HT29 colon) was > 100 µM and the TGI (MCF7 breast) was > 100 µM. For the same molecule, the TGI (NCI-H522 lung) was > 100 µM, the TGI (U251 CNS) was > 100 µM and the TGI (HOP-92 NSCLC) was > 100 µM. The TGI (786-0 renal) was > 100 µM, the TGI (K-562 leukemia) was > 100 µM and the TGI (UACC-257 melanoma) was > 100 µM. The TGI (SW-620 colon) was > 100 µM, the TGI (COLO 205 colon) was > 100 µM and the TGI (SF-295 CNS) was > 100 µM. The TGI (BT-549 breast) was > 100 µM, the TGI (OVCAR-8 ovarian) was > 100 µM and the TGI (OVCAR-3 ovarian) was > 100 µM. For the same molecule, the TGI (MDA-MB-231 breast) was > 100 µM, the TGI (T-47D breast) was > 100 µM and the TGI (DU-145 prostate) was > 100 µM. For the same molecule, the TGI (A498 renal) was > 100 µM, the TGI (RPMI-8226 leukemia) was > 100 µM and the TGI (MDA-N) was > 100 µM.
